Where two headings read alike, the source gives them in different places.
Assays:
Assay in all cases: HotSpot kinase profiling
Assay type in all cases: biochemical
EGFR = target: T1, EGFR (Homo sapiens, UniProt P00533)
T1 construct: purchased Reaction Biology Corp
How it was run: (§1)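 Activity is measured by radiolabel transfer captured on P81 filters after a 2 h room-temperature reaction of kinase, substrate and cofactors. Values are percent inhibition against DMSO.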

EPHA5 = target: T2, EPHA5 (Homo sapiens, UniProt P54756)
T2 construct: purchased Reaction Biology Corp
T2 sequence (P54756 25-1037): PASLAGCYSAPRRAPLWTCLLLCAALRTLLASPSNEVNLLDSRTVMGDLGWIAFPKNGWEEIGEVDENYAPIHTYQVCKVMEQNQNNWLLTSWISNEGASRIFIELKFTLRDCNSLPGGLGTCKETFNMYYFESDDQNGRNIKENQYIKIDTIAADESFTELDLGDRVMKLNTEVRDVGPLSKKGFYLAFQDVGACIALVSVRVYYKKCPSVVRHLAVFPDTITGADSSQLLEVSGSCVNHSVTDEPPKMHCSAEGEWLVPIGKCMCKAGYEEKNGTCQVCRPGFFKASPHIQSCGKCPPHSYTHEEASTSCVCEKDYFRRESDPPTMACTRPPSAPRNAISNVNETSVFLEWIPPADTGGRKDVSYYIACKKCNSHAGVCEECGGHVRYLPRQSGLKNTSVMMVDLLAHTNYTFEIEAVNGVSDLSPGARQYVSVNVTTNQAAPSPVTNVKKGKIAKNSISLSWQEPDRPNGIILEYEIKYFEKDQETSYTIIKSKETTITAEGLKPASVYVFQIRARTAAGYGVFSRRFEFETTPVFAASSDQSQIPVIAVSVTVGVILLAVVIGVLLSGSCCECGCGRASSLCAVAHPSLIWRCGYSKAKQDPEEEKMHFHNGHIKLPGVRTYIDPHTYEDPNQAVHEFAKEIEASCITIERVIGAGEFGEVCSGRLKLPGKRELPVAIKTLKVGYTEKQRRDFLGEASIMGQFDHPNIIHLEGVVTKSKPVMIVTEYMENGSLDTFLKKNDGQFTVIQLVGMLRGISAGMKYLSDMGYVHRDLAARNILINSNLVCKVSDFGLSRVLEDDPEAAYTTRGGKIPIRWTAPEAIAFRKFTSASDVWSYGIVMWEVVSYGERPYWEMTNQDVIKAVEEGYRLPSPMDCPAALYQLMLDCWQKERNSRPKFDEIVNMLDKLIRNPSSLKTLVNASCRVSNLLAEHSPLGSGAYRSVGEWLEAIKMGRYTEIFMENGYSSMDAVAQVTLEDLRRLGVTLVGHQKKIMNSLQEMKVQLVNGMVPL
How it was run: as §1

HIPK1 = target: T3, HIPK1 (Homo sapiens, UniProt Q86Z02)
T3 construct: purchased Reaction Biology Corp
T3 sequence (Q86Z02 whole entry): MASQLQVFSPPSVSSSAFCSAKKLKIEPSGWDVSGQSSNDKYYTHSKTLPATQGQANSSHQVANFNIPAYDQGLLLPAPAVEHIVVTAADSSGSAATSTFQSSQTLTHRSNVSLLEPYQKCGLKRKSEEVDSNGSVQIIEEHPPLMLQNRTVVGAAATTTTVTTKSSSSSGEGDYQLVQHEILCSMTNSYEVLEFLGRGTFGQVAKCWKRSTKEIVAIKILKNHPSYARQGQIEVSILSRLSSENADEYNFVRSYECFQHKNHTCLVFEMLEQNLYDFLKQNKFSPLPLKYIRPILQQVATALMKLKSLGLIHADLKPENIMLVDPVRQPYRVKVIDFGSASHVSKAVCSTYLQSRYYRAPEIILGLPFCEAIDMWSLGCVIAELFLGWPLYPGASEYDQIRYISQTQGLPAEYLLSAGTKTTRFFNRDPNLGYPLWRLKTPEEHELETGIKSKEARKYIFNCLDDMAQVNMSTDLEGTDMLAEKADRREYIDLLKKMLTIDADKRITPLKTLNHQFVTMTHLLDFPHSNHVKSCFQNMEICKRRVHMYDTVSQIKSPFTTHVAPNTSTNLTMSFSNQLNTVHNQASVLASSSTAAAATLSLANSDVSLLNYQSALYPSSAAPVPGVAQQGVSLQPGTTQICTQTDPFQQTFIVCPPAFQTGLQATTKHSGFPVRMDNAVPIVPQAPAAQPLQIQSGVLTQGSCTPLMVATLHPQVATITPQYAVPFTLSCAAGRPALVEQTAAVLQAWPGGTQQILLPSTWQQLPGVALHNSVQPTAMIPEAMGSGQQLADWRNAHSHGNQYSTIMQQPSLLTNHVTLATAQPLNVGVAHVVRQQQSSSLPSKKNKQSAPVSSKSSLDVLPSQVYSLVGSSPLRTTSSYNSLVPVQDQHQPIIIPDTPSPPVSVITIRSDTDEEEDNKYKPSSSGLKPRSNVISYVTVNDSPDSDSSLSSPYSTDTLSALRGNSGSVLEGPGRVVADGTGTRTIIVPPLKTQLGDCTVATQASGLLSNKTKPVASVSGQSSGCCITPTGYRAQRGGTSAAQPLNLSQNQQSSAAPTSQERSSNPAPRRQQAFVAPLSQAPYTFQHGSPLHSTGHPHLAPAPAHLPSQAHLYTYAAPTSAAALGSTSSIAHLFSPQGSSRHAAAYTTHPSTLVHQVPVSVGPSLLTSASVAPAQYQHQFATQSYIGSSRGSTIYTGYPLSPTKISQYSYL
How it was run: as §1

LCK2/ICK = target: T4, LCK2/ICK (Homo sapiens, UniProt Q9UPZ9)
T4 construct: purchased Reaction Biology Corp
T4 sequence (Q9UPZ9 1-632): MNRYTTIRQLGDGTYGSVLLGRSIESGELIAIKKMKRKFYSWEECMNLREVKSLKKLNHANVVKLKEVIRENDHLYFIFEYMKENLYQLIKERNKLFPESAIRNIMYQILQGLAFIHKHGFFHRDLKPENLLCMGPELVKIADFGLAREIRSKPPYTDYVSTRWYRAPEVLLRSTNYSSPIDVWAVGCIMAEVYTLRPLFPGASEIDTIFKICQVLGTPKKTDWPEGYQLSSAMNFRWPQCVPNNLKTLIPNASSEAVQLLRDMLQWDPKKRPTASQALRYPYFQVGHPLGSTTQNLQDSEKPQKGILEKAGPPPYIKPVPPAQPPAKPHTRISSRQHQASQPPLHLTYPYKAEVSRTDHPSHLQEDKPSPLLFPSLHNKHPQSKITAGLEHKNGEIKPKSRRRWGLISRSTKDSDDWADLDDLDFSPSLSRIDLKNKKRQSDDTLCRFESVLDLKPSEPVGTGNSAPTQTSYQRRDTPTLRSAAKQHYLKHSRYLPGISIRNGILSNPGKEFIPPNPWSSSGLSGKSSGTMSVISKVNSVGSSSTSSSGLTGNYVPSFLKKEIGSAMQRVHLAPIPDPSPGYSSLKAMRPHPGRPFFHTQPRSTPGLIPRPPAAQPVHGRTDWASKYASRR
How it was run: as §1

OSR1/OXSR1 = target: T5, OSR1/OXSR1 (Homo sapiens, UniProt O95747)
T5 construct: purchased Reaction Biology Corp
T5 sequence (O95747 whole entry): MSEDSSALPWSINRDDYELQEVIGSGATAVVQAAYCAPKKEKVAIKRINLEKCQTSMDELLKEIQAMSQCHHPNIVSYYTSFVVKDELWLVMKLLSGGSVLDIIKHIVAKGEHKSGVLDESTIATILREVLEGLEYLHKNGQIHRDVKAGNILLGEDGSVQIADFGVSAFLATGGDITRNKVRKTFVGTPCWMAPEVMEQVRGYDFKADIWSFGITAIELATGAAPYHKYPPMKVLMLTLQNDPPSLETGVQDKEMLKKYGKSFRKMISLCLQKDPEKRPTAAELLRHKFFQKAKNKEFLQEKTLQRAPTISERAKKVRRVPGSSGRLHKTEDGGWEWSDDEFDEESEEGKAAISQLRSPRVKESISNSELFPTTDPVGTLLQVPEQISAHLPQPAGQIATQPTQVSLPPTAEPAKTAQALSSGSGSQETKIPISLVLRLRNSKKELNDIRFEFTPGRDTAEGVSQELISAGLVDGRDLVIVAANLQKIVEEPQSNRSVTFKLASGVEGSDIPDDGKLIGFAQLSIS
How it was run: as §1

IGF1R = target: T6, IGF1R (Homo sapiens, UniProt P08069)
T6 construct: purchased Reaction Biology Corp
How it was run: as §1

PKCepsilon = target: T7, PKCepsilon (Homo sapiens, UniProt Q02156)
T7 construct: purchased Reaction Biology Corp
T7 sequence (Q02156 1-737): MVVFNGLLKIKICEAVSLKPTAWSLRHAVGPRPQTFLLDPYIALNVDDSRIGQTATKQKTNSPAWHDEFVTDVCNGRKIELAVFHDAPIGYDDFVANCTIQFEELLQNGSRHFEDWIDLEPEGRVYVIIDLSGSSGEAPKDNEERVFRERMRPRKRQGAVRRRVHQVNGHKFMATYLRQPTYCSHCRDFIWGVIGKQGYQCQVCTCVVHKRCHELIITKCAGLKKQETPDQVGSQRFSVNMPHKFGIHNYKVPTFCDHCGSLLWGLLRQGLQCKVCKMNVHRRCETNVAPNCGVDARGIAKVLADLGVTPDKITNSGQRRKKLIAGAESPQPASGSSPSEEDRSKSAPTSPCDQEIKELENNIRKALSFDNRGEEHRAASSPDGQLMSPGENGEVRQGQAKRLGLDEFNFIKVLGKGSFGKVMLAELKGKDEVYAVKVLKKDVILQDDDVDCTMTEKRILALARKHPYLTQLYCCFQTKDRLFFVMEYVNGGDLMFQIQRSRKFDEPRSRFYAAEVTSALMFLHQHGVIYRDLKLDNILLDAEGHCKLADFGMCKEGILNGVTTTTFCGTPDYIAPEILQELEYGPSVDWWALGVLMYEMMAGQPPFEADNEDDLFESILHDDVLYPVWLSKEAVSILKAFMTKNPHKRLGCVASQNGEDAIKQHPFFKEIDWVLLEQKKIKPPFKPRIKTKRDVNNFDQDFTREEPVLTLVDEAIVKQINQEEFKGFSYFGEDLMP
How it was run: as §1

[1] = read-out: % Enzyme Activity (relative to DMSO controls) Run 1
[2] = read-out: % Enzyme Activity (relative to DMSO controls) Run 2

T1 sequence (P00533 25-1210): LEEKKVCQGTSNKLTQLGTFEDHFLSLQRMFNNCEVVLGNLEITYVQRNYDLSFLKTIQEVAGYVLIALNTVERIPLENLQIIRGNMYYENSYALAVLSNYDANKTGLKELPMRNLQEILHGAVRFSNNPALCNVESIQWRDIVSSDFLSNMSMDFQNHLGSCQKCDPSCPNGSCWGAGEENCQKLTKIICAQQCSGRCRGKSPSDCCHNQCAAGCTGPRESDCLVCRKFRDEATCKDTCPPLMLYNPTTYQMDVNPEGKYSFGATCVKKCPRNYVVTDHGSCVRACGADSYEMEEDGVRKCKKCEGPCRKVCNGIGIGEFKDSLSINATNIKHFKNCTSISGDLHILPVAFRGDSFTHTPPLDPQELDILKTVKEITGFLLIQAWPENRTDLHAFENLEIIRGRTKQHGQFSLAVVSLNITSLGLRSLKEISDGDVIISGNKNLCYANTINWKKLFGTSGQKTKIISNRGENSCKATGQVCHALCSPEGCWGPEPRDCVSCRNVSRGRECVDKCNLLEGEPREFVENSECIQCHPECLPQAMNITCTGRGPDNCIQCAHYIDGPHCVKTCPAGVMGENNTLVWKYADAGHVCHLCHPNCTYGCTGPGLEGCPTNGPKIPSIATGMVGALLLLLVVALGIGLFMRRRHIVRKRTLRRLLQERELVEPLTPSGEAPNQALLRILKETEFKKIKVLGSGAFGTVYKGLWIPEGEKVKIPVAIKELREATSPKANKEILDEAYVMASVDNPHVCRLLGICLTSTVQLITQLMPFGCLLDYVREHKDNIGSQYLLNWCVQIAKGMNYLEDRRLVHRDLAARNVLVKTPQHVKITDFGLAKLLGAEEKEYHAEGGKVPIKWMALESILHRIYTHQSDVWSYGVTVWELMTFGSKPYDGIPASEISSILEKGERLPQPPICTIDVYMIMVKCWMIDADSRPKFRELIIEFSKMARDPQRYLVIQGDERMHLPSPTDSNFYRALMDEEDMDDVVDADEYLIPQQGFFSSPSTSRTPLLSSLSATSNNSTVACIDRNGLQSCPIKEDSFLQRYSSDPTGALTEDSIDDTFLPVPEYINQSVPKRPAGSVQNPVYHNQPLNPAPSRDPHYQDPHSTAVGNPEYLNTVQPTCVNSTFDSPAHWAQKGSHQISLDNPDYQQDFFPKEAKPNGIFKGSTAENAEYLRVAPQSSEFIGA

For C=CC(=O)Nc1cccc(Nc2nc(Nc3ccc(OCCOC)c(F)c3)ncc2F)c1 [Compound 2], the inhibition at 3 µM (EGFR) was 80.3%, the remaining activity at 3 µM (EGFR; [1]) was 19.2% and the remaining activity at 3 µM (EGFR; [2]) was 20.2%. The inhibition at 3 µM (EPHA5) was 8.66%, the remaining activity at 3 µM (EPHA5; [1]) was 89.1% and the remaining activity at 3 µM (EPHA5; [2]) was 93.6%. The inhibition at 3 µM (HIPK1) was 10.3%, the remaining activity at 3 µM (HIPK1; [1]) was 87.6% and the remaining activity at 3 µM (HIPK1; [2]) was 91.7%. For the same compound, the inhibition at 3 µM (LCK2/ICK) was 1.98%, the remaining activity at 3 µM (LCK2/ICK; [1]) was 101% and the remaining activity at 3 µM (LCK2/ICK; [2]) was 95.1%. For the same compound, the inhibition at 3 µM (OSR1/OXSR1) was -19.2%, the remaining activity at 3 µM (OSR1/OXSR1; [1]) was 117% and the remaining activity at 3 µM (OSR1/OXSR1; [2]) was 122%. For the same compound, the inhibition at 3 µM (IGF1R) was 15.6%, the remaining activity at 3 µM (IGF1R; [1]) was 82.8% and the remaining activity at 3 µM (IGF1R; [2]) was 86%. The inhibition at 3 µM (PKCepsilon) was 6.29%, the remaining activity at 3 µM (PKCepsilon; [1]) was 93.2% and the remaining activity at 3 µM (PKCepsilon; [2]) was 94.2%.
